Columns and labels:
Experiment in all cases: cells
Type in all cases: functional, cell-based
Settings in all cases: Homo sapiens
D-247MG = test system: D-247MG
Description: SANGER: Inhibition of human D-247MG cell growth in a cell viability assay.

DG-75 = test system: DG-75;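 also: growth inhibition of DG-75 cells, read out with a cell viability assay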
Description: SANGER: Inhibition of human DG-75 cell growth in a cell viability assay.

DMS-153 = test system: DMS-153
Description: SANGER: Inhibition of human DMS-153 cell growth in a cell viability assay.

HCC2157 = test system: HCC2157;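 also: growth inhibition of the cancer cell line, read out as cell viability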
Description: SANGER: Inhibition of human HCC2157 cell growth in a cell viability assay.

IST-SL2 = test system: IST-SL2;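 also: growth inhibition of human IST-SL2 cells, read out by a cell viability assay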
Description: SANGER: Inhibition of human IST-SL2 cell growth in a cell viability assay.

Kasumi 1 = test system: Kasumi 1;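 also: growth inhibition of human Kasumi-1 cells, read out by a cell viability assay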
Description: SANGER: Inhibition of human KASUMI-1 cell growth in a cell viability assay.

KMS-12-PE = test system: KMS-12-PE;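 also: growth inhibition of human KMS-12-PE cells, measured with a cell viability assay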
Description: SANGER: Inhibition of human KMS-12-PE cell growth in a cell viability assay.

MC-CAR = test system: MC-CAR;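 also: growth inhibition of the human MC-CAR cell line, read out by a cell viability assay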
Description: SANGER: Inhibition of human MC-CAR cell growth in a cell viability assay.

MHH-CALL-2 = test system: MHH-CALL-2;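 also: growth inhibition of the cell line, read out in a cell viability assay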
Description: SANGER: Inhibition of human MHH-CALL-2 cell growth in a cell viability assay.

NB1 = test system: NB1;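 also: reduction of NB1 cell proliferation, read out with a viability assay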
Description: SANGER: Inhibition of human NB1 cell growth in a cell viability assay.

NCI-H64 = test system: NCI-H64;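 also: growth inhibition of NCI-H64 cells, read out with a cell viability assay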
Description: SANGER: Inhibition of human NCI-H64 cell growth in a cell viability assay.

NCI-H748 = test system: NCI-H748;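 also: growth inhibition of NCI-H748 cells, measured by a cell viability assay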
Description: SANGER: Inhibition of human NCI-H748 cell growth in a cell viability assay.

SNU-16 = test system: SNU-16;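 also: growth inhibition of human SNU-16 cells, determined with a cell viability readout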
Description: SANGER: Inhibition of human NCI-SNU-16 cell growth in a cell viability assay.

SR = test system: SR
Description: SANGER: Inhibition of human SR cell growth in a cell viability assay.

TGW = test system: TGW;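 also: growth inhibition of human TGW cells, read out with a cell viability assay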
Description: SANGER: Inhibition of human TGW cell growth in a cell viability assay.

TUR = test system: TUR;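 also: growth inhibition of human TUR cells, read out with a cell viability assay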
Description: SANGER: Inhibition of human TUR cell growth in a cell viability assay.

CMK = test system: CMK;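 also: growth inhibition of CMK cells, read out as cell viability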
Description: SANGER: Inhibition of human CMK cell growth in a cell viability assay.

Ca-Ski = test system: Ca-Ski;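 also: cell viability assay measuring inhibition of Ca-Ski cell growth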
Description: SANGER: Inhibition of human Ca-Ski cell growth in a cell viability assay.

DK-MG = test system: DK-MG;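 also: growth inhibition of DK-MG cells, read out with a cell viability assay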
Description: SANGER: Inhibition of human DK-MG cell growth in a cell viability assay.

EFM-19 = test system: EFM-19;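 also: growth inhibition of human EFM-19 cells, measured in a cell viability assay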
Description: SANGER: Inhibition of human EFM-19 cell growth in a cell viability assay.

EPLC-272H = test system: EPLC-272H
Description: SANGER: Inhibition of human EPLC-272H cell growth in a cell viability assay.

HCC38 = test system: HCC38;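 also: cell viability assay on the human HCC38 cell line, with IC50 marking the concentration that inhibits cell growth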
Description: SANGER: Inhibition of human HCC38 cell growth in a cell viability assay.

HCT-116 = test system: HCT-116
Description: SANGER: Inhibition of human HCT-116 cell growth in a cell viability assay.

HMV-2 cell line = test system: HMV-2 cell line;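 also: growth inhibition of HMV-II cells, read out with a cell viability assay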
Description: SANGER: Inhibition of human HMV-II cell growth in a cell viability assay.

HN = test system: HN
Description: SANGER: Inhibition of human HN cell growth in a cell viability assay.

HOP-92 = test system: HOP-92;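 also: cell viability readout, with IC50 reflecting inhibition of HOP-92 cell growth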
Description: SANGER: Inhibition of human HOP-92 cell growth in a cell viability assay.

Hs-578T = test system: Hs-578T
Description: SANGER: Inhibition of human Hs-578-T cell growth in a cell viability assay.

HuO-3N1 = test system: HuO-3N1;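 also: cell viability readout used to measure how strongly compounds suppress proliferation of human HuO-3N1 cells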
Description: SANGER: Inhibition of human HuO-3N1 cell growth in a cell viability assay.

KYSE-150 cell line = test system: KYSE-150 cell line;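 also: growth inhibition of human KYSE-150 cells, read out with a cell viability assay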
Description: SANGER: Inhibition of human KYSE-150 cell growth in a cell viability assay.

LCLC-97TM1 = test system: LCLC-97TM1;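 also: cell viability assay measuring growth inhibition of human LCLC-97TM1 cells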
Description: SANGER: Inhibition of human LCLC-97TM1 cell growth in a cell viability assay.

MC-IXC = test system: MC-IXC;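 also: growth inhibition of MC-IXC cells, read out with a cell viability assay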
Description: SANGER: Inhibition of human MC-IXC cell growth in a cell viability assay.

MG-63 = test system: MG-63;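 also: growth inhibition of human MG-63 cells, read out with a cell viability assay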
Description: SANGER: Inhibition of human MG-63 cell growth in a cell viability assay.

NCI-H2009 = test system: NCI-H2009;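 also: cell viability assay measuring inhibition of NCI-H2009 cell growth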
Description: SANGER: Inhibition of human NCI-H2009 cell growth in a cell viability assay.

NCI-H2347 = test system: NCI-H2347;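 also: growth inhibition of the cell line, read out with a cell viability assay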
Description: SANGER: Inhibition of human NCI-H2347 cell growth in a cell viability assay.

NCI-H460 = test system: NCI-H460;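 also: cell viability assay scoring growth inhibition of human NCI-H460 cells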
Description: SANGER: Inhibition of human NCI-H460 cell growth in a cell viability assay.

NCI-H596 = test system: NCI-H596;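 also: growth inhibition of NCI-H596 cells, read out with a cell viability assay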
Description: SANGER: Inhibition of human NCI-H596 cell growth in a cell viability assay.

NUGC-3 = test system: NUGC-3;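 also: growth inhibition of human NUGC-3 cells, read out with a cell viability assay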
Description: SANGER: Inhibition of human NUGC-3 cell growth in a cell viability assay.

OVCAR-8 = test system: OVCAR-8;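 also: growth inhibition of human OVCAR-8 cells, read out by a cell viability assay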
Description: SANGER: Inhibition of human OVCAR-8 cell growth in a cell viability assay.

PA-1 = test system: PA-1;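 also: IC50 for suppression of PA-1 cell proliferation, determined with a cell viability read-out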
Description: SANGER: Inhibition of human PA-1 cell growth in a cell viability assay.

RMG-I = test system: RMG-I;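 also: growth inhibition of human RMG-I cells, read out with a cell viability assay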
Description: SANGER: Inhibition of human RMG-I cell growth in a cell viability assay.

RPMI-2650 = test system: RPMI-2650
Description: SANGER: Inhibition of human RPMI-2650 cell growth in a cell viability assay.

SJRH30 = test system: SJRH30;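 also: growth inhibition of human SJRH30 cells, read out with a cell viability assay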
Description: SANGER: Inhibition of human SJRH30 cell growth in a cell viability assay.

SNU-423 = test system: SNU-423
Description: SANGER: Inhibition of human SNU-423 cell growth in a cell viability assay.

SW1783 = test system: SW1783;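 also: cell growth inhibition measured with a viability assay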
Description: SANGER: Inhibition of human SW1783 cell growth in a cell viability assay.

SW756 = test system: SW756;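 also: growth inhibition of human SW756 cells, read out with a cell viability assay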
Description: SANGER: Inhibition of human SW756 cell growth in a cell viability assay.

SW780 = test system: SW780;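 also: growth inhibition of the cells, read out with a cell viability assay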
Description: SANGER: Inhibition of human SW780 cell growth in a cell viability assay.

T-24 = test system: T-24;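 also: growth inhibition of T-24 cells, read out with a cell viability assay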
Description: SANGER: Inhibition of human T-24 cell growth in a cell viability assay.

T47D = test system: T47D;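 also: growth inhibition of human T47D cells, measured with a cell viability assay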
Description: SANGER: Inhibition of human T47D cell growth in a cell viability assay.

TCC-SUP = test system: TCC-SUP;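 also: growth inhibition of TCC-SUP cells, read out with a cell viability assay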
Description: SANGER: Inhibition of human TCCSUP cell growth in a cell viability assay.

AN3-CA = test system: AN3-CA;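 also: growth inhibition of human AN3-CA cells measured by a cell viability assay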
Description: SANGER: Inhibition of human AN3-CA cell growth in a cell viability assay.

C3A = test system: C3A;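 also: growth inhibition of C3A human cells, quantified with a cell viability readout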
Description: SANGER: Inhibition of human C3A cell growth in a cell viability assay.

CAL-27 = test system: CAL-27;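 also: Viability-based readout, IC50 reflecting inhibition of CAL-27 cell growth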
Description: SANGER: Inhibition of human CAL-27 cell growth in a cell viability assay.

CAL-33 = test system: CAL-33;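 also: growth inhibition of CAL-33 cells, read out with a cell viability assay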
Description: SANGER: Inhibition of human CAL-33 cell growth in a cell viability assay.

CAL-39 = test system: CAL-39;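 also: cell viability assay measuring growth inhibition of CAL-39 cells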
Description: SANGER: Inhibition of human CAL-39 cell growth in a cell viability assay.

CAL-54 = test system: CAL-54;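 also: growth inhibition of CAL-54 cells, read out by a viability measurement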
Description: SANGER: Inhibition of human CAL-54 cell growth in a cell viability assay.

U-251 = test system: U-251;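 also: growth inhibition of human U-251 cells, read out through a cell viability assay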
Description: SANGER: Inhibition of human U251 cell growth in a cell viability assay.

VMRC-RCZ = test system: VMRC-RCZ;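 also: growth inhibition measured with a cell viability assay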
Description: SANGER: Inhibition of human VMRC-RCZ cell growth in a cell viability assay.

YH-13 = test system: YH-13;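 also: cell viability readout of growth suppression in the human YH-13 cell line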
Description: SANGER: Inhibition of human YH-13 cell growth in a cell viability assay.

YKG-1 = test system: YKG-1
Description: SANGER: Inhibition of human YKG-1 cell growth in a cell viability assay.

CAMA-1 = test system: CAMA-1
Description: SANGER: Inhibition of human CAMA-1 cell growth in a cell viability assay.

MOLT-13 = test system: MOLT-13
Description: SANGER: Inhibition of human MOLT-13 cell growth in a cell viability assay.

Measured: IC50

CCNc1cc(N[C@H]2CC[C@@H](O)CC2)nc(Nc2ccc3c(ccn3Cc3ccccc3)c2)n1
> 5.12 µM: D-247MG | DG-75 | DMS-153 | HCC2157 | Kasumi 1 | KMS-12-PE | MC-CAR | MHH-CALL-2 | NB1 | NCI-H64 | NCI-H748 | SNU-16 | SR | TGW | TUR | CMK
4.56 µM: IST-SL2

O=c1cc(N2CCOCC2)oc2c(-c3cccc4c3sc3ccccc34)cccc12
0.466 µM: HuO-3N1
> 2 µM: Ca-Ski | D-247MG | DK-MG | EFM-19 | EPLC-272H | HCC2157 | HCC38 | HCT-116 | HMV-2 cell line | HN | HOP-92 | Hs-578T | KYSE-150 cell line | LCLC-97TM1 | MC-IXC | MG-63 | NCI-H2009 | NCI-H2347 | NCI-H460 | NCI-H596 | NUGC-3 | OVCAR-8 | RMG-I | RPMI-2650 | SJRH30 | SNU-423 | SW1783 | SW756 | SW780 | T-24 | T47D | TCC-SUP | AN3-CA | C3A | CAL-27 | CAL-33 | CAL-39 | CAL-54 | TGW | U-251 | VMRC-RCZ | YH-13 | YKG-1 | CAMA-1
1.58 µM: PA-1

COc1cc(C)c(Sc2cnc(NC(=O)c3ccc(CNC(C)C(C)(C)C)cc3)s2)cc1C(=O)N1CCN(C(C)=O)CC1 (stereo not given)
> 10.2 µM: D-247MG | DG-75 | DMS-153 | HCC2157 | IST-SL2 | Kasumi 1 | KMS-12-PE | MC-CAR | MHH-CALL-2 | MOLT-13 | NB1 | NCI-H64 | NCI-H748 | SNU-16 | SR | TGW | TUR | CMK

Cc1ccc(NC(=O)c2cccc(C(C)(C)C#N)c2)cc1Nc1ccc2ncn(C)c(=O)c2c1
> 4 µM: D-247MG | DG-75 | DMS-153 | HCC2157 | IST-SL2 | Kasumi 1 | KMS-12-PE | MC-CAR | MHH-CALL-2 | MOLT-13 | NB1 | NCI-H64 | NCI-H748 | SNU-16 | SR | TGW | TUR | CMK

NC(=O)c1ncn([C@@H]2O[C@H](COP(=O)(O)O)[C@@H](O)[C@H]2O)c1N
552 µM: YKG-1
354 µM: CAMA-1
1030 µM: TCC-SUP
413 µM: T47D
1360 µM: NCI-H460
856 µM: PA-1
569 µM: EPLC-272H
1780 µM: MC-IXC
1220 µM: SNU-423
917 µM: LCLC-97TM1
1310 µM: CAL-33
> 2000 µM: Ca-Ski | D-247MG | HCC38 | HMV-2 cell line | Hs-578T | MG-63 | NCI-H2347 | NCI-H596 | NUGC-3 | OVCAR-8 | RMG-I | SW1783 | SW756 | SW780 | T-24 | AN3-CA | C3A | CAL-27 | CAL-39 | CAL-54 | U-251 | VMRC-RCZ | YH-13
1460 µM: NCI-H2009
252 µM: HN
1690 µM: HOP-92
343 µM: EFM-19
424 µM: HCT-116
89.4 µM: HuO-3N1
1010 µM: KYSE-150 cell line

Source: ChEMBL document CHEMBL1201861, “Genomics of Drug Sensitity in Cancer screening data, Wellcome Trust Sanger Institute”
